# Laboratory results as given in PubChem BioAssay (NCI).
#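 How tested: cells in 96-well plates exposed to compound for 48 hours at five concentrations. GI50: concentration for 50% inhibition of growth. TGI: total growth inhibition.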
# Legend:
# Test in all cases: NCI-60 cell line screen, 48 h
# MALME-3M melanoma = test system: MALME-3M melanoma
# HL-60(TB) leukemia = test system: HL-60(TB) leukemia
# KM12 colon = test system: KM12 colon
# SK-MEL-2 melanoma = test system: SK-MEL-2 melanoma
# MCF7 breast = test system: MCF7 breast
# SNB-19 CNS = test system: SNB-19 CNS
# NCI-H23 lung = test system: NCI-H23 lung
# NCI-H460 lung = test system: NCI-H460 lung
# SK-MEL-28 melanoma = test system: SK-MEL-28 melanoma
# A498 renal = test system: A498 renal
# SF-295 CNS = test system: SF-295 CNS
# TK-10 renal = test system: TK-10 renal
# NCI/ADR-RES ovarian = test system: NCI/ADR-RES ovarian
# SF-268 CNS = test system: SF-268 CNS
# UACC-62 melanoma = test system: UACC-62 melanoma
# ACHN renal = test system: ACHN renal
# HS 578T breast = test system: HS 578T breast
# 786-0 renal = test system: 786-0 renal
# RPMI-8226 leukemia = test system: RPMI-8226 leukemia
# CCRF-CEM leukemia = test system: CCRF-CEM leukemia
# EKVX NSCLC = test system: EKVX NSCLC
# IGROV1 ovarian = test system: IGROV1 ovarian
# HCT-116 colon = test system: HCT-116 colon
# MDA-MB-435 = test system: MDA-MB-435
# COLO 205 colon = test system: COLO 205 colon
# OVCAR-5 ovarian = test system: OVCAR-5 ovarian
# K-562 leukemia = test system: K-562 leukemia
# CAKI-1 renal = test system: CAKI-1 renal
# HOP-62 NSCLC = test system: HOP-62 NSCLC
# SF-539 CNS = test system: SF-539 CNS
# NCI-H226 lung = test system: NCI-H226 lung
# MOLT-4 leukemia = test system: MOLT-4 leukemia
# SNB-75 CNS = test system: SNB-75 CNS
# UACC-257 melanoma = test system: UACC-257 melanoma
# OVCAR-3 ovarian = test system: OVCAR-3 ovarian
# SK-MEL-5 melanoma = test system: SK-MEL-5 melanoma
# OVCAR-8 ovarian = test system: OVCAR-8 ovarian
# DU-145 prostate = test system: DU-145 prostate
# NCI-H522 lung = test system: NCI-H522 lung
# RXF 393 renal = test system: RXF 393 renal
# M14 melanoma = test system: M14 melanoma
# PC-3 prostate = test system: PC-3 prostate
# U251 CNS = test system: U251 CNS
# HT29 colon = test system: HT29 colon
# T-47D breast = test system: T-47D breast
# HOP-92 NSCLC = test system: HOP-92 NSCLC
# SN12C renal = test system: SN12C renal
# LOX IMVI melanoma = test system: LOX IMVI melanoma
# MDA-MB-231 breast = test system: MDA-MB-231 breast
# UO-31 renal = test system: UO-31 renal
# A549 NSCLC = test system: A549 NSCLC
# SW-620 colon = test system: SW-620 colon
# SK-OV-3 ovarian = test system: SK-OV-3 ovarian
# SR leukemia = test system: SR leukemia
# HCT-15 colon = test system: HCT-15 colon
# OVCAR-4 ovarian = test system: OVCAR-4 ovarian
# HCC-2998 colon = test system: HCC-2998 colon
# BT-549 breast = test system: BT-549 breast
smiles,measurement,setting,value
O=C(Nc1ccc(-n2cc(-c3ccncc3)c(-c3ccc(Cl)c(O)c3)n2)cc1)c1cc(Cl)cc(Cl)c1,GI50,MALME-3M melanoma,2.56 µM
same,TGI,MALME-3M melanoma,8.81 µM
same,GI50,HL-60(TB) leukemia,4.41 µM
same,TGI,HL-60(TB) leukemia,> 31.6 µM
same,GI50,KM12 colon,2.72 µM
same,TGI,KM12 colon,> 29.4 µM
same,GI50,SK-MEL-2 melanoma,5.24 µM
same,TGI,SK-MEL-2 melanoma,> 100 µM
same,GI50,MCF7 breast,6.21 µM
same,TGI,MCF7 breast,> 100 µM
same,GI50,SNB-19 CNS,> 36.2 µM
same,TGI,SNB-19 CNS,> 100 µM
same,GI50,NCI-H23 lung,7.41 µM
same,TGI,NCI-H23 lung,> 100 µM
same,GI50,NCI-H460 lung,4.03 µM
same,TGI,NCI-H460 lung,> 100 µM
same,GI50,SK-MEL-28 melanoma,2.42 µM
same,TGI,SK-MEL-28 melanoma,> 30.8 µM
same,GI50,A498 renal,17.3 µM
same,TGI,A498 renal,> 100 µM
same,GI50,SF-295 CNS,0.738 µM
same,TGI,SF-295 CNS,2.79 µM
same,GI50,TK-10 renal,> 19.9 µM
same,TGI,TK-10 renal,> 100 µM
same,GI50,NCI/ADR-RES ovarian,6.1 µM
same,TGI,NCI/ADR-RES ovarian,> 100 µM
same,GI50,SF-268 CNS,> 100 µM
same,TGI,SF-268 CNS,> 100 µM
same,GI50,UACC-62 melanoma,2.96 µM
same,TGI,UACC-62 melanoma,> 28.1 µM
same,GI50,ACHN renal,10.4 µM
same,TGI,ACHN renal,> 100 µM
same,GI50,HS 578T breast,4.3 µM
same,TGI,HS 578T breast,> 100 µM
same,GI50,786-0 renal,1.53 µM
same,TGI,786-0 renal,4.23 µM
same,GI50,RPMI-8226 leukemia,0.793 µM
same,TGI,RPMI-8226 leukemia,4.14 µM
same,GI50,CCRF-CEM leukemia,4.25 µM
same,TGI,CCRF-CEM leukemia,> 100 µM
same,GI50,EKVX NSCLC,50.7 µM
same,TGI,EKVX NSCLC,> 100 µM
same,GI50,IGROV1 ovarian,> 100 µM
same,TGI,IGROV1 ovarian,> 100 µM
same,GI50,HCT-116 colon,2.69 µM
same,TGI,HCT-116 colon,> 100 µM
same,GI50,MDA-MB-435,3.45 µM
same,TGI,MDA-MB-435,> 100 µM
same,GI50,COLO 205 colon,9.36 µM
same,TGI,COLO 205 colon,> 100 µM
same,GI50,OVCAR-5 ovarian,8.42 µM
same,TGI,OVCAR-5 ovarian,97.5 µM
same,GI50,K-562 leukemia,1.11 µM
same,TGI,K-562 leukemia,> 100 µM
same,GI50,CAKI-1 renal,2.03 µM
same,TGI,CAKI-1 renal,> 24.6 µM
same,GI50,HOP-62 NSCLC,2.49 µM
same,TGI,HOP-62 NSCLC,18.8 µM
same,GI50,SF-539 CNS,1.88 µM
same,TGI,SF-539 CNS,> 100 µM
same,GI50,NCI-H226 lung,> 100 µM
same,TGI,NCI-H226 lung,> 100 µM
same,GI50,MOLT-4 leukemia,5.71 µM
same,TGI,MOLT-4 leukemia,> 100 µM
same,GI50,SNB-75 CNS,2.79 µM
same,TGI,SNB-75 CNS,> 100 µM
same,GI50,UACC-257 melanoma,5.68 µM
same,TGI,UACC-257 melanoma,> 100 µM
same,GI50,OVCAR-3 ovarian,> 100 µM
same,TGI,OVCAR-3 ovarian,> 100 µM
same,GI50,SK-MEL-5 melanoma,1.46 µM
same,TGI,SK-MEL-5 melanoma,2.93 µM
same,GI50,OVCAR-8 ovarian,14.4 µM
same,TGI,OVCAR-8 ovarian,> 100 µM
same,GI50,DU-145 prostate,> 32.8 µM
same,TGI,DU-145 prostate,> 100 µM
same,GI50,NCI-H522 lung,2.31 µM
same,TGI,NCI-H522 lung,7.94 µM
same,GI50,RXF 393 renal,0.291 µM
same,TGI,RXF 393 renal,0.879 µM
same,GI50,M14 melanoma,1.95 µM
same,TGI,M14 melanoma,6.67 µM
same,GI50,PC-3 prostate,3.87 µM
same,TGI,PC-3 prostate,> 100 µM
same,GI50,U251 CNS,3.93 µM
same,TGI,U251 CNS,> 100 µM
same,GI50,HT29 colon,2.68 µM
same,TGI,HT29 colon,> 23.6 µM
same,GI50,T-47D breast,> 100 µM
same,TGI,T-47D breast,> 100 µM
same,GI50,HOP-92 NSCLC,5.57 µM
same,TGI,HOP-92 NSCLC,> 100 µM
same,GI50,SN12C renal,> 100 µM
same,TGI,SN12C renal,> 100 µM
same,GI50,LOX IMVI melanoma,1.19 µM
same,TGI,LOX IMVI melanoma,2.62 µM
same,GI50,MDA-MB-231 breast,0.802 µM
same,TGI,MDA-MB-231 breast,4.01 µM
same,GI50,UO-31 renal,3.94 µM
same,TGI,UO-31 renal,> 100 µM
same,GI50,A549 NSCLC,> 28 µM
same,TGI,A549 NSCLC,> 100 µM
same,GI50,SW-620 colon,3.72 µM
same,TGI,SW-620 colon,> 28.8 µM
same,GI50,SK-OV-3 ovarian,> 21.2 µM
same,TGI,SK-OV-3 ovarian,> 100 µM
same,GI50,SR leukemia,3.33 µM
same,TGI,SR leukemia,> 100 µM
same,GI50,HCT-15 colon,1.31 µM
same,TGI,HCT-15 colon,> 21.8 µM
same,GI50,OVCAR-4 ovarian,> 94 µM
same,TGI,OVCAR-4 ovarian,> 100 µM
same,GI50,HCC-2998 colon,3.41 µM
same,TGI,HCC-2998 colon,> 23.6 µM
same,GI50,BT-549 breast,2.53 µM
same,TGI,BT-549 breast,> 100 µM
